We go through two molecules from PMC7332385 (Journal of the American Society for Mass Spectrometry, 2020).

The target of assay [1] is β-2-microglobulin (β2m). As to conditions: read-out: Kd for Cu(II) bound to β2m, cited from earlier work.
Assay [2] deals with Cu(II)-β2m (β-2-microglobulin) (Homo sapiens, UniProt P61769). Nature of the assay: CL-MS ligand titration of Cu. As to conditions: read-out: Cu(II)-β2m and EGCG Kd; DEPC (120 μM) labeling of the N-terminal amine; 30 μM β2m, 60 μM Cu(II); triplicate. Format: binding.
Chain of Cu(II)-β2m (β-2-microglobulin) (P61769 21-119): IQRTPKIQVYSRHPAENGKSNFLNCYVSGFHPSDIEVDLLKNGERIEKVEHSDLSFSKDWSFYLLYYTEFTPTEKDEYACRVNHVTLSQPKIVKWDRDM
In assay [3] the target is β-2-microglobulin (β2m). Conditions: read-out: EGCG-β2m Kd; from size exclusion chromatography data; cited from earlier work. Background: Size exclusion chromatography separates by hydrodynamic size, large species first.

Like-named read-outs stand apart in the source and are kept apart here.

In general, Kd refers to the concentration at which binding is half-saturated. As to `O=S(=O)([O-])[O-].[Cu+2]` [Cu(II), copper sulfate], the Kd on β-2-microglobulin (β2m) [1] (in the presence of EGCG) was 49 µM; on β-2-microglobulin (β2m) [1] (without EGCG), 3 µM.
Consider `O=C(O[C@@H]1Cc2c(O)cc(O)cc2O[C@@H]1c1cc(O)c(O)c(O)c1)c1cc(O)c(O)c(O)c1` [EGCG, epigallocatechin gallate], for which the Kd in assay [2] was 12 ± 5 µM; at β-2-microglobulin (β2m) [3], 6 µM.
